Consider four compounds from patent publication US12679878B2, “CRF2 receptor agonists and their use in therapy” (SANOFI, priority 2020, dated 2026).

Each structure is given as a SMILES string. Like-named read-outs stand apart in the source and are kept apart here. Starred links: 1 amine or outer side, 2 acyl side, 3 side chain; linkers in the order of their positions; H or OH if unused. Non-standard residues stand in square brackets, D forms with d. Residues, ends and D or L forms follow the SMILES beside them. Groups on a side chain read outwards from the residue. *: point of attachment. C18 diacid = O=C(O)CCCCCCCCCCCCCCCCC(=O)*; γGlu = O=C(O)[C@H](CCC(=O)[*:2])N[*:1]; AEEA = NCCOCCOCC(=O)O; Aib = CC(C)(N)C(=O)O

The target of assay [1] is T1, human CRF2α receptor (Homo sapiens, UniProt Q13324).
T1 construct: expressed in transfected cells; host or cells: TeloHEAC
T1 sequence (Q13324 1-411): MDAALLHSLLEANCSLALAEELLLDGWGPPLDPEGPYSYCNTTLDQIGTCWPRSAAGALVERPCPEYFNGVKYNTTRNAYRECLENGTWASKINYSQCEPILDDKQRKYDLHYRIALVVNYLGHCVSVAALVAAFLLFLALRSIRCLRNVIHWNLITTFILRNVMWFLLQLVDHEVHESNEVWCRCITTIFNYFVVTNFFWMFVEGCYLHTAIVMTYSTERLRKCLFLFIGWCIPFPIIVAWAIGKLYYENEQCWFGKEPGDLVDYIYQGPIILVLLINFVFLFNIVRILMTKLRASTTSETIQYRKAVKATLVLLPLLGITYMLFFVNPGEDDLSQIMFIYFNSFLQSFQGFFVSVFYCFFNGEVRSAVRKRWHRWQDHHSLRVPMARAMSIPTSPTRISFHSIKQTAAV
Kind of assay: cAMP agonism at human CRF2 α receptor in TeloHEAC cells (Example 7). It is filed as cell-based. The following applies: cAMP HTRF, TeloHEAC cells stably expressing human CRF2 α. An outline of the steps: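 Thawed frozen stably transfected cells in HBSS/20 mM HEPES (0% or 0.1% HSA) plus 2 mM IBMX were exposed to compound at 2000 cells/well for 30 min at room temperature. Intracellular cAMP was read by HTRF (665/620 nm ratio) after 1 h lysis; EC50 was derived with 1000 nM urocortin 2 set as 100%.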
In general terms: In TR-FRET formats the signal depends on donor and acceptor labels being close together.

The target in assay [2] is T2, CRF1R receptor (Homo sapiens, UniProt P34998).
T2 construct: host or cells: CHO-K1 clone 2
T2 sequence (P34998 24-415): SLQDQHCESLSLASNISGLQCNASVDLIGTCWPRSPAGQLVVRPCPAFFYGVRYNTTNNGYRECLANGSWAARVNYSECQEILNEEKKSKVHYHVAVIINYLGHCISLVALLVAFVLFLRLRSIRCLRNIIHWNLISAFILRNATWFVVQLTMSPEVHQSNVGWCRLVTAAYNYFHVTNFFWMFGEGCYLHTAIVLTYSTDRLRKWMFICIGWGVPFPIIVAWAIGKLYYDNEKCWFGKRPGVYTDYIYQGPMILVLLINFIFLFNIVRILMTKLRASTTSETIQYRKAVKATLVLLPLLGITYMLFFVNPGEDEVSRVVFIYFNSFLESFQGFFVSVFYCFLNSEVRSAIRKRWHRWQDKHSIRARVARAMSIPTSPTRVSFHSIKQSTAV
Kind of assay: cAMP activity at anti-target CRF1R, CHO-K1 cell line clone 2 (Example 19.10). The following applies: CRF1R CHO-K1 clone 2; for EC50: 0% HSA, read-out: EC50 [nM] 0% HSA; for Emax: 100% = Sauvagine at 100 nM. The assay is classed as cell-based. An outline of the steps: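 The cAMP read-out used the same protocol as the previous assay, except that Sauvagine at 100 nM set the 100% activation control. Cells were CHO-K1 clone 2 overexpressing CRF1R, cultured in F12 medium with 10% FBS and G418 and stored frozen until use.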

[3] abbreviates: 0% HSA, read-out: EC50 [nM], 0% HSA.

In general, EC50 refers to the midpoint of the concentration-response curve. Broadly, the Emax is the size of the effect at its maximum, as opposed to the concentration needed.

For the compound `CC[C@H](C)[C@H](N)C(=O)N[C@H](C(=O)N[C@@H](CC(C)C)C(=O)N[C@@H](CO)C(=O)N[C@@H](CC(C)C)C(=O)N[C@@H](CC(=O)O)C(=O)N[C@H](C(=O)N1CCC[C@H]1C(=O)N[C@H](C(=O)N[C@@H](CCCCN)C(=O)N[C@@H](CC(C)C)C(=O)N[C@@H](CCCCNC(=O)COCCOCCNC(=O)COCCOCCNC(=O)CC[C@H](NC(=O)CCCCCCCCCCCCCCCCC(=O)O)C(=O)O)C(=O)N[C@@H](CCC(N)=O)C(=O)N[C@H](C(=O)N[C@@H](CC(C)C)C(=O)N[C@@H](CC(C)C)C(=O)N[C@@H](CCCCN)C(=O)N[C@@H](CCC(N)=O)C(=O)N[C@@H](CCC(=O)O)C(=O)N[C@@H](CCCNC(=N)N)C(=O)N[C@@H](CCC(N)=O)C(=O)N[C@@H](CCCCN)C(=O)N[C@@H](CCCCN)C(=O)N[C@@H](CCC(N)=O)C(=O)N[C@@H](CCCNC(=N)N)C(=O)N[C@@H](CCC(=O)O)C(=O)N[C@@H](CCC(N)=O)C(=O)N[C@@H](C)C(=O)N[C@@H](CCCCN)C(=O)N[C@H](C(=O)N[C@@H](CC(N)=O)C(=O)NC(C)(C)C(=O)N[C@@H](CCC(N)=O)C(=O)N[C@H](C(=O)N[C@@H](CC(C)C)C(=O)N[C@@H](C)C(=O)N[C@@H](CCC(N)=O)C(=O)N[C@H](C(N)=O)C(C)C)[C@@H](C)CC)[C@@H](C)O)[C@@H](C)CC)[C@@H](C)CC)C(C)C)C(C)C` [compound 89] (H-IVLSLDVPIKLK([AEEA-AEEA-γGlu-C18 diacid])QILLKQERQKKQREQAKTN[Aib]QILAQV-NH2), the EC50 was 0.3 nM in assay [1] (setting [3]); 15.6 nM in assay [1] (0.1% HSA, read-out: EC50 [nM], 0.1% HSA); greater than 100 nM in assay [2]. Further, the Emax in assay [2] amounted to 3.7%.

With `CC[C@H](C)[C@H](N)C(=O)N[C@H](C(=O)N[C@@H](CC(C)C)C(=O)N[C@@H](CO)C(=O)N[C@@H](CC(C)C)C(=O)N[C@@H](CC(=O)O)C(=O)N[C@H](C(=O)N1CCC[C@H]1C(=O)N[C@H](C(=O)N[C@@H](CCCCN)C(=O)N[C@@H](CC(C)C)C(=O)N[C@@H](CCCCNC(=O)COCCOCCNC(=O)COCCOCCNC(=O)CC[C@H](NC(=O)CCCCCCCCCCCCCCCCC(=O)O)C(=O)O)C(=O)N[C@@H](CCC(N)=O)C(=O)N[C@H](C(=O)N[C@@H](CC(C)C)C(=O)N[C@@H](CC(C)C)C(=O)N[C@@H](CCCCN)C(=O)N[C@@H](CCC(N)=O)C(=O)N[C@@H](CCC(=O)O)C(=O)N[C@@H](CCCNC(=N)N)C(=O)N[C@@H](CCC(N)=O)C(=O)N[C@@H](CCCCN)C(=O)N[C@@H](CCCCN)C(=O)N[C@@H](CCC(=O)O)C(=O)N[C@@H](CCCNC(=N)N)C(=O)N[C@@H](CCC(=O)O)C(=O)N[C@@H](CCC(N)=O)C(=O)N[C@@H](C)C(=O)N[C@@H](CCC(=O)O)C(=O)N[C@H](C(=O)N[C@@H](CC(N)=O)C(=O)N[C@@H](CCCCN)C(=O)N[C@@H](CCC(N)=O)C(=O)N[C@H](C(=O)N[C@@H](CC(C)C)C(=O)N[C@@H](C)C(=O)N[C@@H](CCC(N)=O)C(=O)N[C@H](C(N)=O)C(C)C)[C@@H](C)CC)[C@@H](C)O)[C@@H](C)CC)[C@@H](C)CC)C(C)C)C(C)C` [compound 96] (H-IVLSLDVPIKLK([AEEA-AEEA-γGlu-C18 diacid])QILLKQERQKKEREQAETNKQILAQV-NH2; N-terminus assumed), the EC50 in assay [1] (setting [3]) was determined as 0.38 nM. In assay [2], the 50% effective concentration (EC50) is greater than 100 nM and the maximum response (Emax) worked out at 2.3%.

Turning to `CC[C@H](C)[C@H](N)C(=O)N[C@H](C(=O)N[C@@H](CC(C)C)C(=O)N[C@@H](CO)C(=O)N[C@@H](CC(C)C)C(=O)N[C@@H](CC(=O)O)C(=O)N[C@@H](C(=O)N1CCC[C@H]1C(=O)N[C@H](C(=O)N[C@@H](CCCCN)C(=O)N[C@@H](CC(C)C)C(=O)N[C@@H](CCCCNC(=O)COCCOCCNC(=O)COCCOCCNC(=O)CC[C@H](NC(=O)CCCCCCCCCCCCCCCCC(=O)O)C(=O)O)C(=O)N[C@@H](CCC(N)=O)C(=O)N[C@H](C(=O)N[C@@H](CC(C)C)C(=O)N[C@@H](CC(C)C)C(=O)N[C@@H](CCCCN)C(=O)N[C@@H](CCC(N)=O)C(=O)N[C@@H](CCC(=O)O)C(=O)N[C@@H](CCCNC(=N)N)C(=O)N[C@@H](CCC(N)=O)C(=O)N[C@@H](CCCCN)C(=O)N[C@@H](CCCCN)C(=O)N[C@@H](CCC(N)=O)C(=O)N[C@@H](CCCNC(=N)N)C(=O)N[C@@H](CCC(=O)O)C(=O)N[C@@H](CCC(N)=O)C(=O)N[C@@H](C)C(=O)N[C@@H](CCC(=O)O)C(=O)N[C@H](C(=O)N[C@@H](CC(N)=O)C(=O)N[C@@H](CCCCN)C(=O)N[C@@H](CCC(N)=O)C(=O)N[C@H](C(=O)N[C@@H](CC(C)C)C(=O)N[C@@H](C)C(=O)N[C@@H](CCC(N)=O)C(=O)N[C@H](C(N)=O)C(C)C)[C@@H](C)CC)[C@@H](C)O)[C@@H](C)CC)[C@@H](C)CC)C(C)C)C(C)C` [compound 102] (H-IVLSLD[dV]PIKLK([AEEA-AEEA-γGlu-C18 diacid])QILLKQERQKKQREQAETNKQILAQV-NH2; N-terminus assumed), the concentration giving a half-maximal response (EC50) was 0.07 nM in assay [1] (setting [3]) and greater than 100 nM in assay [2]. Also, in assay [2], the Emax stood at 9%.

Take `CC[C@H](C)[C@H](N)C(=O)N[C@H](C(=O)N[C@@H](CC(C)C)C(=O)N[C@@H](CO)C(=O)N[C@@H](CC(C)C)C(=O)N[C@@H](CC(=O)O)C(=O)N[C@H](C(=O)N1CCC[C@H]1C(=O)N[C@H](C(=O)N[C@@H](CCCCN)C(=O)N[C@@H](CC(C)C)C(=O)N[C@@H](CCCCNC(=O)COCCOCCNC(=O)COCCOCCNC(=O)CC[C@H](NC(=O)CCCCCCCCCCCCCCCCC(=O)O)C(=O)O)C(=O)N[C@@H](CCC(N)=O)C(=O)N[C@H](C(=O)N[C@@H](CC(C)C)C(=O)N[C@@H](CC(C)C)C(=O)N[C@@H](CCC(=O)O)C(=O)N[C@@H](CCC(N)=O)C(=O)N[C@@H](CCC(=O)O)C(=O)N[C@@H](CCCNC(=N)N)C(=O)N[C@@H](CCC(N)=O)C(=O)N[C@@H](CCCCN)C(=O)NC(C)(C)C(=O)N[C@@H](CCC(N)=O)C(=O)N[C@@H](CCCNC(=N)N)C(=O)N[C@@H](CCC(=O)O)C(=O)N[C@@H](CCC(N)=O)C(=O)N[C@@H](C)C(=O)N[C@@H](CCC(=O)O)C(=O)N[C@H](C(=O)N[C@@H](CC(N)=O)C(=O)N[C@@H](CCCCN)C(=O)N[C@@H](CCC(N)=O)C(=O)N[C@H](C(=O)N[C@@H](CC(C)C)C(=O)N[C@@H](C)C(=O)N[C@@H](CCC(N)=O)C(=O)N[C@H](C(N)=O)C(C)C)[C@@H](C)CC)[C@@H](C)O)[C@@H](C)CC)[C@@H](C)CC)C(C)C)C(C)C` [compound 103] (H-IVLSLDVPIKLK([AEEA-AEEA-γGlu-C18 diacid])QILLEQERQK[Aib]QREQAETNKQILAQV-NH2): the EC50 in assay [1] (setting [3]) was 0.84 nM; in assay [2], greater than 100 nM. This compound registered an Emax in assay [2] of 14%.
